Ends that are not written are not given here.
Experiments:
INS-1E cells [1] = test: Glucose-stimulated insulin secretion (GSIS) in INS-1E cells; assay type: cell-based, rat
Method: FIG. 3, comprising FIG. 3A through FIG. 3D, depicts the evaluation of the biological activity of HSA-112 in INS-1E cells. FIG. 3A depicts a dose-response analysis of the effect of HSA-112 on the rate of insulin secretion in INS-1E cells. The INS-1E cells were grown and treated with increasing doses of HSA-112 for 24 h, as described in Methods. Subsequently, cells were mixed with different concentrations of HSA-112, as indicated in the graph (red columns), PEG2000 (green columns), and free peptide (blue columns) and were seeded in 12-well plates. After 24 h the cells were taken to a GSIS in the presence of 2.5 mM (weak color bars) or 16.7 mM (strong color bars) glucose. FIG. 3B depicts the time-course analysis of the effect of HSA-112 on the rate of insulin secretion in INS-1E cells. The INS-1E cells were prepared for the experiment as described above with 50 μM of HSA-112, PEG2000, or free peptide. After incubation, as indicated in the graph, the cells were taken to a GSIS as described above. FIG. 3C depicts the cell protective effect of HSA-112 under oxidative stress conditions. Cells were prepared for the experiment as described in Methods. Trolox was used as a positive control at a concentration of 100 μM. The oxidative stress was induced in the tissue culture, as described in Methods. Standard MTT analysis (also described in Methods) was used for evaluating the effect of HSA-112 on cell viability. FIG. 3D depicts INS-1E cell proliferation. Cells were prepared for the experiment as described above. After 24 h the cells were colored by trypan blue and counted as described in Methods *p<0.05, n=6. MEAN±SE.
FIG. 7, comprising FIG. 7A through FIG. 7G, depicts the evaluation of the biological activity of HSA-28P in INS-1E cells. FIG. 7A depicts dose-response analysis of the effect of HSA-28P on the rate of insulin secretion in INS-1E cells. The INS-1E cells were grown and trypsinized as described in Methods. Subsequently, cells were mixed with the indicated concentrations of HSA-28P (red columns), non-relevant peptide nanoparticles (NRPNP, green columns), and naked nanoparticles (NP, blue columns) and were seeded in 12-well plates. After 24 h the cells were taken to a GSIS in the presence of 2.5 mM (weak color bars) or 16.7 mM (strong color bars) glucose. FIG. 7B depicts time-course analysis of the effect of HSA-28P on the rate of insulin secretion in INS-1E cells. The INS-1E cells were prepared for the experiment as described above with 1.34 μM of both HSA-28P or NRPNP, and 0.76 μg/ml of NP. After incubation for the time indicated in the graph, the cells were taken to a GSIS as described in Methods. FIG. 7C depicts the measurement of insulin content. The RIA-assay was performed for INS-1E lysates. FIG. 7D depicts the Effect of HSA-28P on the cells viability under oxidative stress conditions. INS-1E cells were incubated for 24 h with a medium supplemented with HSA-28P (3 μM), or HSA-28P1/2 (1.5 μM), or NPs covered by phantom random peptide (PPNP, 3 μM), or NP (0.76 μg/ml), or HSA-28 (3 μM) and trolox, as a positive antioxidant control (1 mM). After the incubation time, 50 mU/ml of glucose oxidase (GO) was added for an additional 1.15 h. Upon completion of the experiments, a standard MTT assay was conducted as described in Methods. Cell viability is presented as a percentage in comparison to non-treated cells. FIG. 7E depicts the effect of HSA-28P on the cell proliferation rate. Experiments were conducted on INS-1E cells that were seeded in 6-well plates. INS-1E cells were treated as described in Panel D. Cells were detached by trypsin and counted as described in Methods and then were visualized with a Cells Sense Live Imaging microscope. FIG. 7F depicts light microscope images of untreated cells. FIG. 7G depicts light microscope images of cells that were treated with HSA-28P. *p<0.05, n=3. MEAN±SE. […]

INS-1E cells [2] = test: Cell counting (trypan blue) / proliferation and cluster formation; assay type: cell-based, rat; settings: 24 h
Method: FIG. 7, comprising FIG. 7A through FIG. 7G, depicts the evaluation of the biological activity of HSA-28P in INS-1E cells. FIG. 7A depicts dose-response analysis of the effect of HSA-28P on the rate of insulin secretion in INS-1E cells. The INS-1E cells were grown and trypsinized as described in Methods. Subsequently, cells were mixed with the indicated concentrations of HSA-28P (red columns), non-relevant peptide nanoparticles (NRPNP, green columns), and naked nanoparticles (NP, blue columns) and were seeded in 12-well plates. After 24 h the cells were taken to a GSIS in the presence of 2.5 mM (weak color bars) or 16.7 mM (strong color bars) glucose. FIG. 7B depicts time-course analysis of the effect of HSA-28P on the rate of insulin secretion in INS-1E cells. The INS-1E cells were prepared for the experiment as described above with 1.34 μM of both HSA-28P or NRPNP, and 0.76 μg/ml of NP. After incubation for the time indicated in the graph, the cells were taken to a GSIS as described in Methods. FIG. 7C depicts the measurement of insulin content. The RIA-assay was performed for INS-1E lysates. […] INS-1E cells were treated as described in Panel D. Cells were detached by trypsin and counted as described in Methods and then were visualized with a Cells Sense Live Imaging microscope. […]
Cells were detached by trypsin and colored by Trypan blue. Only uncolored cells were counted. […]

HSA-112: HSA-28 dimer formed by bridging two HSA-28 monomers via amide bond formation with active ester PEG2,000 (QQGEFLNYD-NH2; not fully specified (N-terminus); also: dimer of two HSA-28 monomers bridged via amide bonds with active ester PEG2000)
duration of the increase in insulin secretion (INS-1E cells [1]; 50 μM): 24 h | time after which a significant increase in insulin secretion was induced (INS-1E cells [1]; 50 μM): 6 h | time of maximal stimulatory effect (INS-1E cells [1]; 50 μM): 18 h | maximal stimulatory effect on GSIS parameters (INS-1E cells [1]; 50 μM, after 18 h): twofold elevation of GSIS parameters | effect on GSIS (INS-1E cells [1]; INS-1E cells, 2.5 mM or 16.7 mM glucose): dose-dependently increased GSIS | amount of cells / proliferation rate (INS-1E cells [2]): higher than that in the control dishes

Reference: patent US20230079439A1, “Compositions and Methods for Enhancing Beta Cell Maturation, Health and Function” (THE REGENTS OF THE UNIVERSITY OF CALIFORNIA, priority 2016, published 2023)
